Assay results from ChEMBL document CHEMBL1133897, “Synthesis, antimalarial activity and inhibition of haem detoxification of novel bisquinolines” (Bioorg Med Chem Lett, 2001).

How the values were obtained:
Plasmodium falciparum [1] = assay: Growth inhibition of chloroquine-resistant Plasmodium falciparum KI; format: functional, organism-based
Plasmodium falciparum [2] = assay: Growth inhibition of chloroquine-sensitive Plasmodium falciparum D10; format: functional, organism-based
[3] = target: T1, Histidine-rich protein PFHRP-II (Plasmodium falciparum, UniProt P05227); assay: Inhibition of beta-hematin formation in Plasmodium falciparum; format: functional
T1 sequence (P05227 whole entry): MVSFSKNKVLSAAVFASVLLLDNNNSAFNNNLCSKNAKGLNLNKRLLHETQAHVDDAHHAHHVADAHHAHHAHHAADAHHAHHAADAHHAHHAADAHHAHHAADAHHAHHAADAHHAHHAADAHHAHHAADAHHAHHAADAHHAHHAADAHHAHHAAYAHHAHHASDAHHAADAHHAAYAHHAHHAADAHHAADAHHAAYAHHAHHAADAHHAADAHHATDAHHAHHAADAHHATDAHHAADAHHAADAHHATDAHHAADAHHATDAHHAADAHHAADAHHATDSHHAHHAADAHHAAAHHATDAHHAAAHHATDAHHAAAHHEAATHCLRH

Plasmodium falciparum [4] = assay: Inhibition of hydrogen peroxide-mediated haem detoxification in Plasmodium falciparum; format: functional, organism-based

SMILES | IC50 (Plasmodium falciparum [1]) [nM] | IC50 (Plasmodium falciparum [2]) [nM] | IC50 [3] [nM] | IC50 (Plasmodium falciparum [4]) [nM]
CCC1CN2CCC1CC2C(O)c1ccnc2c(CNC(=O)CCCCCCCCC(=O)Nc3cccc4c(C(O)C5CC6CCN5CC6CC)ccnc34)cccc12 (stereo unspecified) | 20 | 50 | – | –
CCN(CC)CCCC(C)Nc1cc(CCCCCCCCc2cc(NC(C)CCCN(CC)CC)c3ccccc3n2)nc2ccccc12 (stereo unspecified) | 25 | 123 | 97000 | 81000
CCN(CC)CCCC(C)Nc1cc(CCCCCCCCCCc2cc(NC(C)CCCN(CC)CC)c3ccccc3n2)nc2ccccc12 (stereo unspecified) | 16 | 154 | 94000 | 80000
CCN(CC)CCCC(C)Nc1cc(CCCCCCCCCCCCc2cc(NC(C)CCCN(CC)CC)c3ccccc3n2)nc2ccccc12 (stereo unspecified) | 17 | 43 | 86000 | 37000
OC(c1cc(C(F)(F)F)nc2c(C(F)(F)F)cccc12)C1CCCCN1 (stereo unspecified) [MEFLOQUINE] | – | 90 | – | 30000
